{"source": "patent US20210353631A1", "about": "“1,4-Benzoxazines for the Treatment of Cancers and Other Neurodegenerative Diseases” (Neugeneron LLC, priority 2020, published 2021)", "test_system": "451 kinases", "test": "Kinome profiling, count of kinases inhibited in the whole panel", "type": "binding", "conditions": "substantially defined as over 36% inhibition at 1 uM"}
{"smiles": "O=C1Nc2ccc(I)cc2/C1=C/c1cc(Br)c(O)c(Br)c1", "note": "[GW5074, reference compound]", "values": [{"measurement": "kinases inhibited substantially of the 451 kinases tested", "result": 21}]}
